SMILES strings stand for the structures. pIC50: −log10 of the molar value. Active and inactive are the calls of the source. No cut-off for these calls is given here.

Test [1] has as its target T1, Protein cereblon/Receptor-type tyrosine-protein kinase FLT3 (Homo sapiens, UniProt P36888+Q96SW2). As to the kind of experiment: PROTAC activity at CRBN/FLT3 in human MV4-11 cells harboring FLT3-ITD mutation assessed as induction of FLT3 degradation at 10 nM incubated for 24 hrs by immunoblotting analysis relative to control. The format is cell-based.
Target sequence in this assay (P36888 27-993 limits assumed): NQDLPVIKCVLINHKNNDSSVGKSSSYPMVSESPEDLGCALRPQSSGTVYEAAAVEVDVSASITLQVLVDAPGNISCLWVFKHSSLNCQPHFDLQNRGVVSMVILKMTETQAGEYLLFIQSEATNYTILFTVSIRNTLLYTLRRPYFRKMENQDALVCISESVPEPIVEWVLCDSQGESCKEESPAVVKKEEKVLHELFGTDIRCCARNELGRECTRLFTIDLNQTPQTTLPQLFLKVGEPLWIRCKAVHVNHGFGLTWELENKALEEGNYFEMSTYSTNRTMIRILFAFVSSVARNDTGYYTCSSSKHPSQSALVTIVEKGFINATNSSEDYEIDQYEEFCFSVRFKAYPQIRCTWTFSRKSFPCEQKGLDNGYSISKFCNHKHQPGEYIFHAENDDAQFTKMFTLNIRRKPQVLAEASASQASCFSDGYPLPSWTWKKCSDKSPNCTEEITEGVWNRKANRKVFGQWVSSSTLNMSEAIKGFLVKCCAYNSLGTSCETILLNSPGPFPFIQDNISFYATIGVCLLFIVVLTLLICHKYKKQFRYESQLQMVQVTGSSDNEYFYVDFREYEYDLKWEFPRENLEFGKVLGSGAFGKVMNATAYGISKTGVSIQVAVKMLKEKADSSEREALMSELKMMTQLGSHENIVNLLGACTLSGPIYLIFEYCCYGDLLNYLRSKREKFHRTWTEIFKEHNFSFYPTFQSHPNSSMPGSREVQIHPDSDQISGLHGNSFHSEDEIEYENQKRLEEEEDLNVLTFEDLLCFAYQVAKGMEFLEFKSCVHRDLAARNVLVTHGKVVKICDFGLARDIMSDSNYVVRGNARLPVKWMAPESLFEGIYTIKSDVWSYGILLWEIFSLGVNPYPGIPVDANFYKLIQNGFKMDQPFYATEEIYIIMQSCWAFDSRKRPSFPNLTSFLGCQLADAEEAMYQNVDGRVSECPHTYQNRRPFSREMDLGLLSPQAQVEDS
Target sequence in this assay (Q96SW2 whole entry partner): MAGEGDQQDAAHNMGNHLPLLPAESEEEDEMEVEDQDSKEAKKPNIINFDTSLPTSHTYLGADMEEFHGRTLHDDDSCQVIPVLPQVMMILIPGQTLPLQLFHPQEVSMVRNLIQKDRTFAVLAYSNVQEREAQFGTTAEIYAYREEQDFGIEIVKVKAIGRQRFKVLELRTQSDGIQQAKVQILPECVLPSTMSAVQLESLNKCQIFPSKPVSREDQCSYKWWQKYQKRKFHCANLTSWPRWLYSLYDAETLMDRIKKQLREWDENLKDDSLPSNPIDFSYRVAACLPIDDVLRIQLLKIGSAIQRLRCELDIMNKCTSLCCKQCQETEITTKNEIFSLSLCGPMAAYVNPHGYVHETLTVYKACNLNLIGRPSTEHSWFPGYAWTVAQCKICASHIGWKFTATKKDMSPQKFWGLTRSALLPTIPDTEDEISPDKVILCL
The target in test [2] is T1, Protein cereblon/Receptor-type tyrosine-protein kinase FLT3. Put plainly: PROTAC activity at CRBN/FLT3 in human MV4-11 cells harboring FLT3-ITD mutation assessed as induction of FLT3 degradation incubated for 24 hrs by immunoblotting analysis. The format is cell-based. In general terms: A western blot detects proteins with antibodies after separation by electrophoresis.

For test [3] the target is unchanged. As to the kind of experiment: PROTAC activity at CRBN/FLT3 in human MV4-11 cells harboring FLT3-ITD mutation assessed as induction of FLT3 degradation by measuring maximal efficacy incubated for 24 hrs by immunoblotting analysis relative to control. The format is cell-based.
Target sequence in this assay (P36888 27-993 limits assumed): as the sequence (P36888 27-993 limits assumed) above
Target sequence in this assay (Q96SW2 whole entry partner): as the sequence (Q96SW2 whole entry partner) above
The test system of test [4] is MV4-11. As to the kind of experiment: Antiproliferative activity against human MV4-11 cells assessed as inhibition of cell proliferation incubated for 72 hrs by CCK8 assay. Type of test: functional, cell-based. As to conditions: MV4-11, 72 h.
Test [5] has as its system MV4-11. As to the kind of experiment: Induction of apoptosis in human MV4-11 cells assessed as early apoptotic cells at 2 nM incubated for 48 hrs by Annexin V/7-AAD staining based flow cytometric analysis relative to control. The format is functional. (Flow cytometry measures light scatter and fluorescence of single cells or particles in a stream.)
In test [6] the test system is MV4-11. Put plainly: Induction of apoptosis in human MV4-11 cells assessed as late apoptotic cells at 2 nM incubated for 48 hrs by Annexin V/7-AAD staining based flow cytometric analysis relative to control. The format is functional.
Test [7] deals with MV4-11. As to the kind of experiment: Induction of apoptosis in human MV4-11 cells assessed as early apoptotic cells at 10 nM incubated for 48 hrs by Annexin V/7-AAD staining based flow cytometric analysis relative to control. Type of test: functional.
In test [8] the test system is MV4-11. Put plainly: Induction of apoptosis in human MV4-11 cells assessed as late apoptotic cells at 10 nM incubated for 48 hrs by Annexin V/7-AAD staining based flow cytometric analysis relative to control. Type of test: functional.
The test system of test [9] is MV4-11. As to the kind of experiment: Induction of apoptosis in human MV4-11 cells assessed as necrotic cells at 10 nM incubated for 48 hrs by Annexin V/7-AAD staining based flow cytometric analysis relative to control. The format is functional.
Test [10] has as its system MV4-11. As to the kind of experiment: Induction of cell cycle arrest at G0/G1 phase in human MV4-11 cells assessed as sub-G0/G1 phase cells at 0.4 nM incubated for 24 hrs by PI staining based flow cytometric analysis relative to control. Type of test: functional.
Test [11] concerns MV4-11. Put plainly: Induction of cell cycle arrest at G0/G1 phase in human MV4-11 cells assessed as G0/G1 phase cells at 0.4 nM incubated for 24 hrs by PI staining based flow cytometric analysis relative to control. The format is functional.
Test [12] has as its system MV4-11. Put plainly: Induction of cell cycle arrest at G0/G1 phase in human MV4-11 cells assessed as S phase cells at 0.4 nM incubated for 24 hrs by PI staining based flow cytometric analysis relative to control. Type of test: functional.
The test system of test [13] is MV4-11. Put plainly: Induction of cell cycle arrest at G0/G1 phase in human MV4-11 cells assessed as G2/M phase cells at 0.4 nM incubated for 24 hrs by PI staining based flow cytometric analysis relative to control. The format is functional.
The test system of test [14] is MV4-11. Put plainly: Induction of cell cycle arrest at G0/G1 phase in human MV4-11 cells assessed as sub-G0/G1 phase cells at 2 nM incubated for 24 hrs by PI staining based flow cytometric analysis relative to control. Type of test: functional.
Test [15] deals with MV4-11. Put plainly: Induction of cell cycle arrest at G0/G1 phase in human MV4-11 cells assessed as G0/G1 phase cells at 2 nM incubated for 24 hrs by PI staining based flow cytometric analysis relative to control. Type of test: functional.
Test [16] concerns MV4-11. Put plainly: Induction of cell cycle arrest at G0/G1 phase in human MV4-11 cells assessed as S phase cells at 2 nM incubated for 24 hrs by PI staining based flow cytometric analysis relative to control. Type of test: functional.
Test [17] concerns MV4-11. As to the kind of experiment: Induction of cell cycle arrest at G0/G1 phase in human MV4-11 cells assessed as G2/M phase cells at 2 nM incubated for 24 hrs by PI staining based flow cytometric analysis relative to control. Type of test: functional.
The test system of test [18] is MV4-11. Put plainly: Inhibition of PI3K/AKT signaling pathway in human MV4-11 cells assessed as reduction in phosphorylated AKT level at 0.08 to 50 nM incubated for 24 hrs by immunoblotting analysis. To be noted: dose 0.08-50 nM. Type of test: cell-based.
Test [19] concerns MV4-11. As to the kind of experiment: Antitumor activity against human MV4-11 cells xenografted in NOD/SCID mouse assessed as reduction in tumor volume at 6 mg/kg, po administered once a day for 21 days. The format is functional, organism-based. As to conditions: time 21.0 day. On the technique in general: Xenograft models place foreign cells or tissue in a host animal.

In the case of `CCc1nc(C(N)=O)c(Nc2ccc(N3CCC(N4CCN(C(=O)CNc5ccc6c(c5)C(=O)N(C5CCC(=O)NC5=O)C6=O)CC4)CC3)c(OC)c2)nc1NC1CCOCC1` (configuration not stated), in test [1], the Activity turned out to be 52%.
Same read-out and setting: with `CCc1nc(C(N)=O)c(Nc2ccc(N3CCC(N4CCN(C(=O)CCCNc5ccc6c(c5)C(=O)N(C5CCC(=O)NC5=O)C6=O)CC4)CC3)c(OC)c2)nc1NC1CCOCC1` (configuration not stated) the figure was 9%.
A word on the DC50: it is the midpoint of the concentration-degradation curve. The Emax is the maximal effect, on the per cent scale that the assay sets. Regarding `CCc1nc(C(N)=O)c(Nc2ccc(N3CCC(N4CCN(C(=O)COc5cccc6c5C(=O)N(C5CCC(=O)NC5=O)C6=O)CC4)CC3)c(OC)c2)nc1NC1CCOCC1` (configuration not stated), the Activity in test [1] worked out at 58%. The DC50 in test [2] is 1.26 nM. For the same compound, in test [3], the maximal response (Emax) worked out at 86.8%.
For `CCc1nc(C(N)=O)c(Nc2ccc(N3CCC(N4CCN(C(=O)COc5cccc6c5C(=O)N(C5CCC(=O)NC5=O)C6)CC4)CC3)c(OC)c2)nc1NC1CCOCC1` (configuration not stated), the DC50 in test [2] came out at 1.01 nM.
One may read the pIC50 as −log10 of the IC50, conventionally taken in molar units. Regarding `CCc1nc(C(N)=O)c(Nc2ccc(N3CCC(N4CCN(C)CC4)CC3)c(OC)c2)nc1NC1CCOCC1` [GILTERITINIB], the negative logarithm of the IC50 (pIC50) in the test with MV4-11 [4] is 8.16. Moreover, the Activity with MV4-11 [5] was determined as 3%; in the test on MV4-11 [6], 6.8%; in the test with MV4-11 [7] it was 5.5%; in the test with MV4-11 [8] it was 19.6%; with MV4-11 [9], 2.3%; in the test with MV4-11 [10], 1.6%. Moreover, the Activity in the test with MV4-11 [11] amounted to 66.3%; with MV4-11 [12] it was 10.4%; in the test with MV4-11 [13], 21.5%; in the test on MV4-11 [14], 1.9%; in the test on MV4-11 [15], 72.4%; in the test with MV4-11 [16] it was 6.9%. The Activity in the test on MV4-11 [17] came out at 18.5%. The inhibition result with MV4-11 [18] is “inactive”. For the same compound, the result in the test on MV4-11 [19] was Active.
As to `CCc1nc(C(N)=O)c(Nc2ccc(N3CCC(N4CCN(C(=O)CCCCCOc5ccc6c(c5)C(=O)N(C5CCC(=O)NC5=O)C6=O)CC4)CC3)c(OC)c2)nc1NC1CCOCC1` (configuration not stated), the Activity in [1] stood at 32%.
As for `CCc1nc(C(N)=O)c(Nc2ccc(N3CCC(N4CCN(C(=O)CCCCCCCCCOc5ccc6c(c5)C(=O)N(C5CCC(=O)NC5=O)C6=O)CC4)CC3)c(OC)c2)nc1NC1CCOCC1` (configuration not stated), the Activity in [1] is 0%.
Same read-out and setting: with `CCc1nc(C(N)=O)c(Nc2ccc(N3CCC(N4CCN(C(=O)CCCCCOc5cccc6c5C(=O)N(C5CCC(=O)NC5=O)C6=O)CC4)CC3)c(OC)c2)nc1NC1CCOCC1` (configuration not stated) the figure was 36%.
For the compound `CCc1nc(C(N)=O)c(Nc2ccc(N3CCC(N4CCN(C(=O)CCCCCCCCCNc5ccc6c(c5)C(=O)N(C5CCC(=O)NC5=O)C6=O)CC4)CC3)c(OC)c2)nc1NC1CCOCC1` (configuration not stated), in [1], the Activity was determined as 0%.
Turning to `CCc1nc(C(N)=O)c(Nc2ccc(N3CCC(N4CCN(C(=O)CCCCCNc5cccc6c5C(=O)N(C5CCC(=O)NC5=O)C6=O)CC4)CC3)c(OC)c2)nc1NC1CCOCC1` (configuration not stated), the Activity in [1] came out at 66%. Moreover, the DC50 in test [2] was determined as 2.26 nM. Further, the Emax in test [3] is 77.2%.
As to `CCc1nc(C(N)=O)c(Nc2ccc(N3CCC(N4CCN(C(=O)CCCCCCCOc5cccc6c5C(=O)N(C5CCC(=O)NC5=O)C6=O)CC4)CC3)c(OC)c2)nc1NC1CCOCC1` (configuration not stated), the Activity in test [1] came to 29%.
Regarding `CCc1nc(C(N)=O)c(Nc2ccc(N3CCC(N4CCN(c5ccc6c(c5)C(=O)N(C5CCC(=O)NC5=O)C6=O)CC4)CC3)c(OC)c2)nc1NC1CCOCC1` (configuration not stated), in [1], the Activity came to 0%.
As for `CCc1nc(C(N)=O)c(Nc2ccc(N3CCC(N4CCN(C(=O)CCCNc5cccc6c5C(=O)N(C5CCC(=O)NC5=O)C6=O)CC4)CC3)c(OC)c2)nc1NC1CCOCC1` (configuration not stated), the Activity in test [1] turned out to be 34%.
For the compound `CCc1nc(C(N)=O)c(Nc2ccc(N3CCC(N4CCN(C(=O)CCCCCCCOc5ccc6c(c5)C(=O)N(C5CCC(=O)NC5=O)C6=O)CC4)CC3)c(OC)c2)nc1NC1CCOCC1` (configuration not stated), in test [1], the Activity was found to be 6%.
Still for that read-out and setting: next, `CCc1nc(C(N)=O)c(Nc2ccc(N3CCC(N4CCN(C(=O)CCCCCCCNc5ccc6c(c5)C(=O)N(C5CCC(=O)NC5=O)C6=O)CC4)CC3)c(OC)c2)nc1NC1CCOCC1` (configuration not stated): 40%.
On to `CCc1nc(C(N)=O)c(Nc2ccc(N3CCC(N4CCN(C(=O)CCCOc5cccc6c5C(=O)N(C5CCC(=O)NC5=O)C6=O)CC4)CC3)c(OC)c2)nc1NC1CCOCC1` (configuration not stated), for which, in test [1], the Activity was determined as 30%.
In the case of `CCc1nc(C(N)=O)c(Nc2ccc(N3CCC(N4CCN(C(=O)CCCOc5ccc6c(c5)C(=O)N(C5CCC(=O)NC5=O)C6=O)CC4)CC3)c(OC)c2)nc1NC1CCOCC1` (configuration not stated), the Activity in [1] was 0%.
Regarding `CCc1nc(C(N)=O)c(Nc2ccc(N3CCC(N4CCN(C(=O)COc5ccc6c(c5)C(=O)N(C5CCC(=O)NC5=O)C6=O)CC4)CC3)c(OC)c2)nc1NC1CCOCC1` (configuration not stated), the Activity in test [1] was 0%.
Take `CCc1nc(C(N)=O)c(Nc2ccc(N3CCC(N4CCN(C(=O)COc5cccc6c5CN(C5CCC(=O)N(C)C5=O)C6=O)CC4)CC3)c(OC)c2)nc1NC1CCOCC1` (configuration not stated): the DC50 in [2] is above 1000 nM. Further, in the test with MV4-11 [4], the negative logarithm of the IC50 (pIC50) was 7.64.
As for `CCc1nc(C(N)=O)c(Nc2ccc(N3CCC(N4CCN(C(=O)CCCCCCCNc5cccc6c5C(=O)N(C5CCC(=O)NC5=O)C6=O)CC4)CC3)c(OC)c2)nc1NC1CCOCC1` (configuration not stated), the Activity in [1] was determined as 50%.
Consider `CCc1nc(C(N)=O)c(Nc2ccc(N3CCC(N4CCN(C(=O)CCCCCCCCCOc5cccc6c5C(=O)N(C5CCC(=O)NC5=O)C6=O)CC4)CC3)c(OC)c2)nc1NC1CCOCC1` (configuration not stated), for which the Activity in test [1] was 0%.
On the same count and under the same terms, with `CCc1nc(C(N)=O)c(Nc2ccc(N3CCC(N4CCN(c5cccc6c5C(=O)N(C5CCC(=O)NC5=O)C6=O)CC4)CC3)c(OC)c2)nc1NC1CCOCC1` (configuration not stated) the figure was 0%; with `CCc1nc(C(N)=O)c(Nc2ccc(N3CCC(N4CCN(C(=O)CCCCCCCCCNc5cccc6c5C(=O)N(C5CCC(=O)NC5=O)C6=O)CC4)CC3)c(OC)c2)nc1NC1CCOCC1` (configuration not stated), 0%; with `CCc1nc(C(N)=O)c(Nc2ccc(N3CCC(N4CCN(C(=O)CCCCCNc5ccc6c(c5)C(=O)N(C5CCC(=O)NC5=O)C6=O)CC4)CC3)c(OC)c2)nc1NC1CCOCC1` (configuration not stated), 52%.
Regarding `CCc1nc(C(N)=O)c(Nc2ccc(N3CCC(N4CCN(C(=O)CNc5cccc6c5C(=O)N(C5CCC(=O)NC5=O)C6=O)CC4)CC3)c(OC)c2)nc1NC1CCOCC1` (configuration not stated), in test [1], the Activity came out at 60%. The DC50 in [2] is 0.98 nM. Further, in test [3], the maximum response (Emax) is 85%.

These data come from ChEMBL document CHEMBL5537128, “Discovery of LWY713 as a potent and selective FLT3 PROTAC degrader with in vivo activity against acute myeloid leukemia” (Eur J Med Chem, 2024).
